We go through 11 compounds from US20110195911A1, “SYNTHETIC ANALOGS OF THE JUXTAMEMBRANE DOMAIN OF IGF1R AND USES THEREOF” (THE UNITED STATES OF AMERICA,AS REPRESENTED BY THE …, priority 2008, published 2011).

Where a SMILES comes first, the peptide text is derived from it. [ ]: non-standard residue; d: D form. The star is where a group is joined. Palmitoyl = CCCCCCCCCCCCCCCC(=O)* Bounds are passed on as bounds.

For this test, the system named is MCF-7 breast cancer cells. The test can be described thus: MTT cell toxicity assay in MCF-7 breast cancer cells. It counts as cell-based. The settings on record: for GI50 / TGI: final 0.5% FBS, two days with compound; for TGI: concentration of total growth inhibition (cytostatic); for growth inhibition / potency in MCF-7 cells (in words): comparison with related peptides; for improvement of potency: N-terminal truncation, relative to peptide 12/3. How it is done: Cell Toxicity Assays: MCF-7 (breast cancer), T47D (breast cancer), Colo 205 (colon cancer), JM-1 (rat hepatoma), Sk Me1-2 (melanoma), PLC (human hepatoma), and HepG2 (human hepatoma) cells were obtained from American Type Cell Culture Collection. MCF-7 cells were grown in RPMI medium supplemented with 10% Fetal Bovine Serum. The rest of the cell lines were grown in DMEM medium supplemented with 10% Fetal Bovine Serum.
MTT 43-(4,5-Dimethylthiazol-2-yl)-2,5-diphenyltetrazolium) cell assay was performed using MCF-7 breast cancer cells. For the assay, cells were seeded into 96 well plates in medium containing 1% Fetal Bovine Serum and 100 μL of a cell suspension containing 5000 cells per well. Wells containing medium-only, and wells containing untreated cells, served as controls.
Seeded cells were allowed to attach and grow in the wells for 24 hours. A 5 mM stock solution of each peptide was made by dissolving approximately 1 mg of peptide in appropriate amount of DMSO. 2 mL dilutions were used to make 0.2 μM, 1.0 μM, 5.0 μM, and 10.0 μM concentration solutions of the compounds in serum-free medium. 100 μl, of the resulting 2× solutions were added to the corresponding wells to provide a final FBS concentration of 0.5% and 0.1 μM, 0.5 μM, 2.5 μM, and 5.0 μM dilutions of inhibitors. The cells were incubated with test compounds for two days. The control wells were given 100 μL of medium to ensure maximum similarity to the test wells so that all of the wells had 200 μL of medium during the growth period. An individual plate was made for Time Zero, to which the dye was added at the time of addition of compounds.
An alternative potency assay was used to test compounds in MCF-7 (breast cancer), T47D (breast cancer), Colo 205 (colon cancer), JM-1 (rat hepatoma), Sk MeI-2 (melanoma), PLC (human hepatoma), and HepG2 (human hepatoma) cells. Cells were suspended at a concentration of approximately 5000 cells per 100 μL of suspension in a 5% FBS RPMI medium. The cells were seeded into 96-count wells and incubated over night. After one day's incubation, the 5% FBS medium was aspirated and replaced with 100 μL of no serum RPMI medium containing 1 mg Bovine Serum Albumin (BSA) per 1 mL RPMI. Various concentrations of the test compounds were prepared by dilution in no-serum medium containing 1 mg BSA/mL. 75 μL of the test compound solutions were added to the wells, and the cells were allowed to incubate for 15-20 minutes, after which time 25 μL of human recombinant IGF-1 (Peprotech) solution was added to the wells to attain final concentrations of 10 ng IGF-1/mL medium. The control wells were given 175 μL of no-serum medium in addition to 25 μL of IGF-1 solution. An individual plate was made for time zero, in which the medium was also aspirated and replaced with 175 μL of no-serum medium and 25 μL of IGF-1. 15 μL of MTT dye was added and let incubate for 4 hours, after which time a stop stop solubilization solution was added. The stop solution lysed the cells and released the dye reduced by the remaining living cells. Absorbance of the wells at 544 nm was determined by a FLUOstar/POLARstar Galaxy (BMG Lab Technologies GmbH) microplate reader. The activity was calculated from the data using the formula: 100×[(T−T0)/(C−T0)] for T>T0 and 100×[(T−T0)/T0] for T<T0, wherein T0 corresponds to cell density at the time of drug addition, “T” is the optical density of the test well after a 48-h period of exposure to test drug, and “C” is the control optical density. The GI50 measures the growth inhibitory power of the test agent, and is defined as the concentration of test drug where 100×(T−T0)/(C−T0)=50. The TGI is the concentration of test drug where 100×(T−T0)/(C−T0)=0. Thus, the TGI signifies a cytostatic effect.

As for `CCCCCCCCCCCCCCCC(=O)N[C@@H](Cc1c[nH]cn1)C(=O)N[C@@H](CCCNC(=N)N)C(=O)N[C@@H](CCCCN)C(=O)N[C@@H](CCCNC(=N)N)C(=O)N[C@@H](CC(N)=O)C(=O)N[C@@H](CC(N)=O)C(=O)N[C@@H](CO)C(=O)N[C@@H](CCCNC(=N)N)C(=O)N[C@@H](CC(C)C)C(=O)NCC(=O)N[C@@H](CC(N)=O)C(=O)NCC(=O)N[C@H](C(N)=O)C(C)C` [Peptide 11, Pal-HRKRNNSRLGNGV-NH2] (Palmitoyl-HRKRNNSRLGNGV-NH2), for the setting “MCF-7 cells, MTT”, the GI50 amounted to 2.5 ± 0.1 µM and the TGI is greater than 5 µM.

For the compound `CCCCCCCCCCCCCCCC(=O)N[C@@H](CCCNC(=N)N)C(=O)N[C@@H](CCCCN)C(=O)N[C@@H](CCCNC(=N)N)C(=O)N[C@@H](CC(N)=O)C(=O)N[C@@H](CC(N)=O)C(=O)N[C@@H](CO)C(=O)N[C@@H](CCCNC(=N)N)C(=O)N[C@@H](CC(C)C)C(=O)NCC(=O)N[C@@H](CC(N)=O)C(=O)NCC(=O)N[C@H](C(=O)N[C@@H](CC(C)C)C(=O)N[C@@H](Cc1ccc(O)cc1)C(=O)N[C@@H](C)C(=O)N[C@@H](CO)C(=O)N[C@H](C(=O)N[C@@H](CC(N)=O)C(N)=O)C(C)C)C(C)C` [Peptide 12, Pal-RKRNNSRLGNGVLYASVN-NH2] (Palmitoyl-RKRNNSRLGNGVLYASVN-NH2), for the setting “MCF-7 cells, MTT”, the GI50 is 1.2 ± 0.1 µM, the TGI came out at 2.7 ± 0.3 µM and the “growth inhibition / potency in MCF-7 cells (in words)” value (“growth inhibition / potency” below) is “decreased activity slightly”.

With `CCCCCCCCCCCCCCCC(=O)N[C@@H](CCCCN)C(=O)N[C@@H](CCCNC(=N)N)C(=O)N[C@@H](CC(N)=O)C(=O)N[C@@H](CC(N)=O)C(=O)N[C@@H](CO)C(=O)N[C@@H](CCCNC(=N)N)C(=O)N[C@@H](CC(C)C)C(=O)NCC(=O)N[C@@H](CC(N)=O)C(=O)NCC(=O)N[C@H](C(=O)N[C@@H](CC(C)C)C(=O)N[C@@H](Cc1ccc(O)cc1)C(=O)N[C@@H](C)C(=O)N[C@@H](CO)C(=O)N[C@H](C(=O)N[C@@H](CC(N)=O)C(N)=O)C(C)C)C(C)C` [Peptide 13, Pal-KRNNSRLGNGVLYASVN-NH2] (Palmitoyl-KRNNSRLGNGVLYASVN-NH2), the improvement of potency result (MCF-7) is on record as “more than ten-fold”. Under “MCF-7, relative to peptide 3”, this compound gave an increase in toxicity of 12.5 fold. Where the note is “MCF-7 cells, MTT”, the GI50 stood at 0.08 ± 0.007 µM and the TGI was found to be 0.5 ± 0.08 µM.

Regarding `CCCCCCCCCCCCCCCC(=O)N[C@@H](CCCNC(=N)N)C(=O)N[C@@H](CC(N)=O)C(=O)N[C@@H](CC(N)=O)C(=O)N[C@@H](CO)C(=O)N[C@@H](CCCNC(=N)N)C(=O)N[C@@H](CC(C)C)C(=O)NCC(=O)N[C@@H](CC(N)=O)C(=O)NCC(=O)N[C@H](C(=O)N[C@@H](CC(C)C)C(=O)N[C@@H](Cc1ccc(O)cc1)C(=O)N[C@@H](C)C(=O)N[C@@H](CO)C(=O)N[C@H](C(=O)N[C@@H](CC(N)=O)C(N)=O)C(C)C)C(C)C` [Peptide 14, Pal-RNNSRLGNGVLYASVN-NH2] (Palmitoyl-RNNSRLGNGVLYASVN-NH2), the improvement of potency entry (MCF-7) is listed as “more than ten-fold”. Moreover, for the setting “MCF-7 cells, MTT”, the GI50 was found to be 0.1 ± 0.004 µM and the TGI was found to be 0.4 ± 0.02 µM.

Consider `CCCCCCCCCCCCCCCC(=O)N[C@@H](CC(N)=O)C(=O)N[C@@H](CC(N)=O)C(=O)N[C@@H](CO)C(=O)N[C@@H](CCCNC(=N)N)C(=O)N[C@@H](CC(C)C)C(=O)NCC(=O)N[C@@H](CC(N)=O)C(=O)NCC(=O)N[C@H](C(=O)N[C@@H](CC(C)C)C(=O)N[C@@H](Cc1ccc(O)cc1)C(N)=O)C(C)C` [Peptide 15, Pal-NNSRLGNGVLY-NH2] (Palmitoyl-NNSRLGNGVLY-NH2), for which, under “MCF-7 cells, MTT”, the GI50 was determined as 0.1 ± 0.01 µM, the TGI worked out at 1.5 ± 0.05 µM and the “growth inhibition / potency” value is on record as “gradual reduction in potency”.

With `CCCCCCCCCCCCCCCC(=O)N[C@@H](CCCNC(=N)N)C(=O)N[C@@H](CC(N)=O)C(=O)N[C@@H](CC(N)=O)C(=O)N[C@@H](CO)C(=O)N[C@@H](CCCNC(=N)N)C(=O)N[C@@H](CC(C)C)C(=O)NCC(=O)N[C@@H](CC(N)=O)C(=O)NCC(=O)N[C@H](C(=O)N[C@@H](CC(C)C)C(=O)N[C@@H](Cc1ccc(O)cc1)C(N)=O)C(C)C` [Peptide 16, Pal-RNNSRLGNGVLY-NH2] (Palmitoyl-RNNSRLGNGVLY-NH2), for the setting “MCF-7 cells, MTT”, the GI50 amounted to 0.07 ± 0.005 µM, the TGI was 0.5 ± 0.02 µM and the “growth inhibition / potency” value was “most potent derivative”.

In the case of `CCCCCCCCCCCCCCCC(=O)N[C@@H](CC(N)=O)C(=O)N[C@@H](CO)C(=O)N[C@@H](CCCNC(=N)N)C(=O)N[C@@H](CC(C)C)C(=O)NCC(=O)N[C@@H](CC(N)=O)C(=O)NCC(=O)N[C@H](C(=O)N[C@@H](CC(C)C)C(=O)N[C@@H](Cc1ccc(O)cc1)C(N)=O)C(C)C` [Peptide 17, Pal-NSRLGNGVLY-NH2] (Palmitoyl-NSRLGNGVLY-NH2), where the note is “MCF-7 cells, MTT”, the GI50 worked out at 0.2 ± 0.01 µM, the TGI was determined as 1.5 ± 0.1 µM and the “growth inhibition / potency” value is on record as “gradual reduction in potency”.

Turning to `CCCCCCCCCCCCCCCC(=O)N[C@@H](CO)C(=O)N[C@@H](CCCNC(=N)N)C(=O)N[C@@H](CC(C)C)C(=O)NCC(=O)N[C@@H](CC(N)=O)C(=O)NCC(=O)N[C@H](C(=O)N[C@@H](CC(C)C)C(=O)N[C@@H](Cc1ccc(O)cc1)C(N)=O)C(C)C` [Peptide 19, Pal-SRLGNGVLY-NH2] (Palmitoyl-SRLGNGVLY-NH2), where the note is “MCF-7 cells, MTT”, the GI50 stood at 0.15 ± 0.05 µM, the TGI was 2.0 ± 0.1 µM and the “growth inhibition / potency” value was “gradual reduction in potency”.

For `CCCCCCCCCCCCCCCC(=O)N[C@@H](CCCNC(=N)N)C(=O)N[C@@H](CC(C)C)C(=O)NCC(=O)N[C@@H](CC(N)=O)C(=O)NCC(=O)N[C@H](C(=O)N[C@@H](CC(C)C)C(=O)N[C@@H](Cc1ccc(O)cc1)C(N)=O)C(C)C` [Peptide 20, Pal-RLGNGVLY-NH2] (Palmitoyl-RLGNGVLY-NH2), under “MCF-7 cells, MTT”, the 50% growth inhibitory concentration (GI50) amounted to 0.2 ± 0.006 µM, the TGI is greater than 5 µM and the “growth inhibition / potency” value is on record as “gradual reduction in potency”.

Turning to `CCCCCCCCCCCCCCCC(=O)N[C@@H](C(=O)N[C@H](CO)C(=O)N[C@H](C)C(=O)N[C@H](Cc1ccc(O)cc1)C(=O)N[C@H](CC(C)C)C(=O)N[C@@H](C(=O)NCC(=O)N[C@H](CC(N)=O)C(=O)NCC(=O)N[C@H](CC(C)C)C(=O)N[C@H](CCCNC(=N)N)C(=O)N[C@H](CO)C(=O)N[C@H](CC(N)=O)C(=O)N[C@H](CC(N)=O)C(=O)N[C@H](CCCNC(=N)N)C(N)=O)C(C)C)C(C)C` [Peptide 21, Pal-VSAYLVGNGLRSNNR-NH2] (Palmitoyl-[dV][dS][dA][dY][dL][dV]G[dN]G[dL][dR][dS][dN][dN][dR]-NH2), where the note is “MCF-7 cells, MTT”, the concentration for total growth inhibition (TGI) is 0.1 ± 0.005 µM and the “growth inhibition / potency” value is on record as “did not improve or diminish the inhibitory activity”.

With `CCCCCCCCCCCCCCCC(=O)N[C@H](Cc1ccc(O)cc1)C(=O)N[C@H](CC(C)C)C(=O)N[C@@H](C(=O)NCC(=O)N[C@H](CC(N)=O)C(=O)NCC(=O)N[C@H](CC(C)C)C(=O)N[C@H](CCCNC(=N)N)C(=O)N[C@H](CO)C(=O)N[C@H](CC(N)=O)C(=O)N[C@H](CC(N)=O)C(=O)N[C@H](CCCNC(=N)N)C(N)=O)C(C)C` [Peptide 22, Pal-YLVGNGLRSNNR-NH2] (Palmitoyl-[dY][dL][dV]G[dN]G[dL][dR][dS][dN][dN][dR]-NH2), where the note is “MCF-7 cells, MTT”, the “cell killing activity (in words)” value is reported as “enhanced cell killing activity”, the TGI amounted to 0.5 ± 0.025 µM and the “growth inhibition / potency” value is reported as “equipotent to peptide 18”.
